Patent US10906881B2, “Inhibitors of arginine gingipain” (priority 2015, dated 2021)
Entries after “also recorded” stand apart in the source; their conditions may differ. One block for each compound: values may come before it.

Key:
[1] = biological target: T1, trypsin (Bos taurus, UniProt P00760); experiment: Trypsin inhibition assay; type: biochemical
T1 construct: gene PRSS1
T1 sequence (P00760 24-246): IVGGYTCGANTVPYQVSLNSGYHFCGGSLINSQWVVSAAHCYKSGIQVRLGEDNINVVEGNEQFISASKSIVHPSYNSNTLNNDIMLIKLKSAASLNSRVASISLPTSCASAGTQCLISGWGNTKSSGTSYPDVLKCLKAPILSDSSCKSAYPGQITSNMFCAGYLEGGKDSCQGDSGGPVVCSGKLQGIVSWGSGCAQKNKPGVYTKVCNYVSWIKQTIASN
Experimental: (§1) The inhibitory of activity of compounds described herein was tested against Kgp, RgpB, RgpA, and trypsin.

[2] = biological target: T2, RgpB (Porphyromonas gingivalis, UniProt P95493); experiment: RgpB fluorogenic inhibition assay; type: biochemical
T2 construct: 0.02 nM RgpB, isolated from culture of Porphyromonas gingivalis; made in house; host or cells: Porphyromonas gingivalis culture (native enzyme purified from the bacterium, not recombinant)
Experimental: The capacities of compounds of the present invention to inhibit the activity of RgpB were measured in a fluorogenic assay similar to those described in Barret Biochemical Journal. 1980, 187(3), 909. The specific assay conditions were as follows. Buffer: pH=7.5, 100 mM Tris-HCl, 75 mM NaCl, 2.5 mM CaCl2, 10 mM cysteine, 1% DMSO after all additions. Protein: 0.02 nM RgpB, isolated from culture of Porphyromonas gingivalis, as described in Pike et al. J Biol. Chem. 1994, 269(1), 406, and Potempa and Nguyen. Current Protocols in Protein Scienc. 2007, 21.20.1-21.20.27. Fluorogenic substrate: 10 uM Boc-Phe-Ser-Arg-MCA. Time=90 minutes. Temperature=37° C. Each compound: 10 concentrations, starting at either 100 uM or 100 nM, with lower concentrations generated by serial 3-fold dilutions. By testing a range of concentrations for each compound, the concentration required to inhibit the activity of RgpB by 50% (the “IC50”) was determined. Under the described assay conditions, signal-to-noise was excellent, and Z factor was greater than 0.7.
as §1

[3] = biological target: Kgp (Porphyromonas gingivalis, UniProt B2RLK2); experiment: Kgp inhibition assay; type: biochemical
Experimental: as §1

[4] = system: SH-SY5Y neuroblastoma cells; experiment: Rescue of neuroblastoma cells from P. gingivalis toxicity; type: cell-based; conditions: 4 μg/mL, P. gingivalis ATCC BAA-308, MOI 1:1000, 48 hours
Experimental: SH-SY5Y neuroblastoma cells were cultured based on established methods [Saberi S., et al. Cell Mol Neurobiol 2013. 33: 5 747-751]. The strain P. gingivalis ATCC BAA-308 was streaked onto a brain heart infusion agar (BHA), and the plate was incubated for 72 h at 37° C. in an anaerobic workstation with an atmosphere of 80% N2, 10% CO2, and 10% H2. The plates were removed from the anaerobic work station for testing and processed under ambient atmosphere. The bacteria were harvested and suspended in complete medium-Pen/Strep (without Pen/Strep). The turbidity of the suspension was adjusted to 0.5, as measured using a MicroScan® Turbidity Meter (Siemens), which is equivalent to ˜6×10^8 cfu/mL (for MOI 1:1000) and incubated with the cells for 48 hours. 4 μg/mL of Compound 13 was added to the media at the time of introduction of the bacteria. Results were recorded using a digital microscope camera (FIG. 5). […] Other compounds of the invention are tested as described for Compound 13.

[5] = biological target: RgpA (Porphyromonas gingivalis, UniProt B2RM93); experiment: RgpA inhibition assay; type: biochemical
Experimental: as §1

[6] = system: gingipain-containing P. gingivalis supernatant; experiment: Degradation of human collagen by P. gingivalis supernatant (SDS-PAGE); type: biochemical, Porphyromonas gingivalis; conditions: 50 μM inhibitor, 1h, pH 7.5
Experimental: P. gingivalis was grown to exponential phase (OD 600 nm=0.6) in a Coy's anaerobic chamber under 5% hydrogen, 10% carbon dioxide, and […]. The bacteria were centrifuged at 5000×g for 10 min at 4° C., and then the supernatant was collected. The supernatant was concentrated by centrifugation at 5000×g for 60 min at 4° C. min using Corning Spin-X UF-20 concentrator tubes and then at 17,000×g for 30 min using Corning Spin-X UF500 concentrator tubes. 10 μg of Collagen type I was incubated with 0.6 μg of P. gingivalis culture supernatant for 1h in the absence or presence of 50 μM Rgp inhibitor (Compound 13, Table 1), 50 μM Kgp inhibitor ((S)—N-(6-guanidino-2-oxo-1-(2,3,5,6-tetrafluorophenoxy)hexan-3-yl)cyclopentanecarboxamide; described in U.S. Pat. Appl. Pub. No. 2016/0096830), or both. Reaction mixtures contained 5 mM cysteine, 20 mM sodium phosphate buffer, pH 7.5. After incubation, the reaction was terminated by the addition of protease inhibitor cocktail (Sigma). The samples were then analyzed by SDS-polyacrylamide gel electrophoresis. Following separation, the gels were stained with Biosafe Coomassie (Bio-Rad).

[7] = system: P gingivalis W83; experiment: P. gingivalis infection of brain tissue in vivo (qPCR); design: species or system BalbC mice; conditions: BID subcutaneously in 25% Pluronic F127, day 35-70
Description: BalbC mice were given a tooth ligature and infected by oral lavage with P gingivalis W83 (1×10^9 CFU in 2% carboxymethyl cellulose) or vehicle for 6 weeks. Compound 13 was delivered BID subcutaneously in 25% Pluronic F127 on day 35-70. On day 70, mice were sacrificed and perfused with PBS prior to dissection. DNA was isolated from one quarter of the brain using a DNEasy Blood & Tissue Kit (Qiagen). Forward and reverse primers for RgpB were used for qPCR to quantify P. gingivalis DNA in the brain tissue. The forward primer sequence was 5′-[…]-3′ (SEQ ID NO: 1). The reverse primer sequence was 5′-[…]-3′ (SEQ ID NO: 2). The probe sequence was 5′-6-FAM-[…]-TAMRA-3′ (SEQ ID NO: 3).

[8] = Plasma pharmacokinetics after subcutaneous delivery; type: in vivo; conditions: 10 mg/kg; for AUC(0-t): male, CD1, mouse, plasma, sc, mice
Experimental: Compound 13 was dissolved at a concentration of 1 mg/mL in water containing carboxymethylcellulose (2% w/w) or Pluronic F127 (25% w/w). Solutions were kept on ice, and 10 mg/kg of each solution was administered to 3 male CD1 mice. Plasma was collected at 7 time points. Concentrations in plasma were determined by HPLC with tandem mass (MS/MS) detection.
Plasma samples were precipitated with a mixture containing 80% acetonitrile. Samples were further diluted with water containing 0.1% formic acid. Chromatographic separation was performed on a reversed phase column (2.1×50 mm, particle size: […], Xbridge C8, Waters, USA). Components were separated using a linear gradient of acetonitrile containing 0.1% formic acid in ultrapurified H2O containing 0.1% formic acid (flow rate 0.2 mL/min).
MS analyses were performed using an API 5500 QTRAP system having an API 5500 QTRAP detector and a Turbo Ion Spray interface (both from Applied Biosystems, USA). The acquisitions were performed in positive ionization mode, with optimized settings for the analytes. The instrument was operated in multiple-reaction-monitoring (MRM) mode, the following transition was used to quantify compound 13; 433.4->112.1. Data were calibrated and quantified using the Analyst™ data system (Applied Biosystems) using the response of the analyte versus the concentration.

[9] = oral RTV 15 minutes prior to Kyt-36; from U.S. patent application Ser. No. 14/875,416; cited from earlier work

IC50 [1]: > 350 nM
SMILES: N=C(N)NCCC[C@H](NC(=O)c1ccccc1C(F)(F)F)C(=O)c1nc2ccccc2s1 [Compound 4, N-[(1S)-1-(1,3-benzothiazole-2-carbonyl)-4-guanidino-butyl]-2-(trifluoromethyl)benzamide]

SMILES: CCCC(=O)N[C@@H](CCCNC(=N)N)C(=O)c1nc2ccccc2s1 [Compound 2, N-[(1S)-1-(1,3-benzothiazole-2-carbonyl)-4-guanidino-butyl]butanamide]
IC50 [2]: < 2 nM
IC50 [1]: > 1000 nM

SMILES: CC[C@H](NC(C)=O)C(=O)NC(CCCNC(=N)N)C(=O)c1nc2ccccc2s1 (single isomer, unassigned) [Compound 11]
IC50 [1]: > 40 nM

SMILES: N=C(N)NCCCC(NC(=O)[C@H]1CC[C@@H](N)C1)C(=O)c1nc2ccccc2s1 (single isomer, unassigned) [Compound 10]
IC50 [1]: > 1000 nM

IC50 [1]: > 1000 nM
SMILES: N=C(N)NCCC[C@H](NC(=O)[C@H]1CCCNC1)C(=O)c1nc2ccccc2s1 [Compound 6, (3S)—N-[(1S)-1-(1,3-benzothiazole-2-carbonyl)-4-guanidino-butyl]piperidine-3-carboxamide]

SMILES: N=C(N)NCCCC(NC(=O)[C@H]1CC[C@@H](N)C1)C(=O)c1nc2ccccc2s1 (single isomer, unassigned) [Compound 9]
IC50 [2]: < 2 nM

IC50 [1]: > 1000 nM
SMILES: N=C(N)NCCC[C@@H](NC(=O)[C@H]1CCCNC1)C(=O)c1nc2ccccc2s1 [Compound 7, (3S)—N-[(1R)-1-(1,3-benzothiazole-2-carbonyl)-4-guanidino-butyl]piperidine-3-carboxamide]

SMILES: N=C(N)NCCC[C@H](NC(=O)C1CCCC1)C(=O)c1nc2ccccc2s1 [Compound 1, N-[(1S)-1-(1,3-benzothiazole-2-carbonyl)-4-guanidino-butyl]cyclopentanecarboxamide]
IC50 [2]: < 1 nM

IC50 [1]: > 1000 nM
SMILES: N=C(N)NCCC[C@H](NC(=O)[C@H]1CCNC1)C(=O)c1nc2ccccc2s1 [Compound 8, (3S)—N-[1-(1,3-benzothiazole-2-carbonyl)-4-guanidino-butyl]pyrrolidine-3-carboxamide]

SMILES: CC[C@H](NC(C)=O)C(=O)NC(CCCNC(=N)N)C(=O)c1nc2ccccc2s1 (single isomer, unassigned) [Compound 12]
IC50 [2]: < 2 nM

SMILES: N=C(N)NCCC[C@H](NC(=O)c1ccccc1)C(=O)c1nc2ccccc2s1 [Compound 3, N-[(1S)-1-(1,3-benzothiazole-2-carbonyl)-4-guanidino-butyl]benzamide]
IC50 [2]: < 2 nM
IC50 [1]: > 1000 nM

IC50 [1]: > 1000 nM
SMILES: N=C(N)NCCC[C@H](NC(=O)CCCN)C(=O)c1nc2ccccc2s1 [Compound 5, 4-amino-N-[(1S)-1-(1,3-benzothiazole-2-carbonyl)-4-guanidino-butyl]butanamide]

SMILES: N=C(N)NCCC[C@H](NC(=O)C1CCCC1)C(=O)COc1c(F)c(F)cc(F)c1F [Compound 13, N-[(1S)-4-guanidino-1-[2-(2,3,5,6-tetrafluorophenoxy)acetyl]butyl]cyclopentanecarboxamide]
IC50 [2]: < 1 nM
IC50 [3]: > 150 nM
Rescue of cells from P. gingivalis toxicity [4]: can rescue; also recorded: prevented the toxicity
IC50 [5]: < 0.5 nM
Degradation of collagen type I by P. gingivalis culture supernatant [6]: prevent degradation of collagen
P. gingivalis DNA in brain tissue by qPCR [7]: demonstrates efficacy
Plasma concentration over time ([8]; Pluronic F127 versus carboxymethylcellulose): increased concentration
AUC(0-t) ([8]; in 2% carboxymethylcellulose): 687 ng·h/mL
AUC(0-t) ([8]; in 25% Pluronic F127): 2120 ng·h/mL

SMILES: [N-]=[N+]=Nc1cccc(C(=O)N[C@@H](CCCNC(=N)N)C(=O)COc2c(F)c(F)cc(F)c2F)c1 [Compound 14, 3-azido-N-[(1S)-4-guanidino-1-[2-(2,3,5,6-tetrafluorophenoxy)acetyl]butyl]benzamide]
IC50 [3]: > 450 nM
IC50 [5]: < 0.5 nM

SMILES: CN(NC(=O)CC[C@H](NC(=O)OCc1ccccc1)C(=O)N[C@@H](CCCCN)C(=O)C(=O)NCc1ccccc1)c1ccccc1 [Kyt-36]
Half-life [9]: increases the half-life
